According to publication PMC8362065, “Easily Available, Amphiphilic Diiron Cyclopentadienyl Complexes Exhibit in Vitro Anticancer Activity in 2D and 3D Human Cancer Cells through Redox Modulation Triggered by CO Release” (Chemistry (Weinheim an Der Bergstrasse, Germany), 2021):

How the values were obtained:
[1] = Carbon monoxide release in 5 % MeOH aqueous solution, headspace GC-TCD; type: physicochemical; settings: 37 °C; for eq. CO released: eqCO = nCO/nFe; for % residual complex: 48 h, calculated as [1 – Σ(eqCO)/3]∙100
Experimental: Carbon monoxide release. A stock solution was prepared by dissolving the selected Fe compound (ca. 10 mg) in MeOH (0.50 mL) then diluting with H2O up to 10.0 mL total volume (5 % v/v MeOH). Next, 3.20 mL of the solution (n Fe ca. 6 ⋅ 10^−3 mmol) and a 7x2 mm stir bar were transferred into a 4‐mL screw top vial (1.72 mL neat gas phase volume). The mixture was sealed with a screw cap with a PTFE/silicone septum and heated at 37 °C for 24 h under stirring. Afterwards, the headspace was sampled with a gas tight microsyringe ([…]) and analysed by GC‐TCD. Therefore, the vial was vented, sealed and heated for further 24 h, and GC‐TCD analysis was repeated. The amount of released CO (νCO, mmol) was calculated based on a calibration curve obtained from analyses of known air/CO mixtures (1–10 % v/v), and the number of equivalents released over a 24 h period refers to the initial amount of compound (eqCO=n CO/n Fe). The residual amount of starting diiron complex after 48 h was calculated by assuming the release of 3 equivalents of CO per mole and the total amount of CO released.

[2] = system: human cancer cell line panel (2008, HCT‐15, PSN‐1, MCF‐7, A375); assay: MTT assay, average over the human cancer cell line panel; type: cell-based; settings: average over tested cancer cell lines, 72 h
Experimental: The diiron complexes [2A]^+, [2C–E]^+, [3F–G]^+, [5H]^+ (as CF3SO3 salts) and [2B]^+, [4G]^+ (as BF4 salts) were tested for their cytotoxic potential by means of the MTT assay, as reported in the Experimental Section. The most convenient counter anion in terms of preparation and handling/storage was chosen in each case; in particular, [2C]CF3SO3 was included in the study, while [2C]Cl was excluded, being highly moisture sensitive and thus affecting the accuracy of the weighting operation. The in‐house human cancer cell line panel contains examples of ovarian (2008), colon (HCT‐15), pancreatic (PSN‐1), and breast (MCF‐7) cancers as well as of melanoma (A375). Cisplatin was used as a reference and tested under the same experimental conditions. In addition, the cytotoxicity was also evaluated for shorter time of exposure (24 h) towards PSN‐1 cancer cells (Table S5).
MTT assay. The growth inhibitory effect towards tumour cells was evaluated by means of MTT assay as previously described.[57] Briefly, 3–8×10^3 cells/well, dependent upon the growth characteristics of the cell line, were seeded in 96‐well microplates in growth medium (100 μL). After 24 h, the medium was removed and replaced with a fresh one containing the compound to be studied at the appropriate concentration. Triplicate cultures were established for each treatment. After 24 or 72 h, each well was treated with 10 μL of a 5 mg/mL MTT saline solution, and following 5 h of incubation, 100 μL of a sodium dodecyl sulfate (SDS) solution in HCl 0.01 M were added. After an overnight incubation, cell growth inhibition was detected by measuring the absorbance of each well at 570 nm using a Bio‐Rad 680 microplate reader. Mean absorbance for each drug dose was expressed as a percentage of the control untreated well absorbance and plotted against drug concentration. IC50 values, the drug concentrations that reduce the mean absorbance at 570 nm to 50 % of those in the untreated control wells, were calculated by the four‐parameter logistic (4‐PL) model. Evaluation was based on means from at least four independent experiments.

PSN‐1 cells = assay: Mitochondrial membrane potential; type: cell-based, human; settings: 24 h (Figure 5B)
Excerpt: Iron is a redox active metal that can generate ROS in cells via the Fenton reaction, thus inducing cellular damage and ultimately leading to cell death.[40] […] Based on this premises, we evaluated the effects induced by the diiron complexes on the mitochondria activity and the cellular redox environment. More precisely, we investigated the ROS production and the alteration of the mitochondrial membrane potential. […] The time‐dependent ROS basal production is probably associated to more than one phenomenon. First of all, the progressive disruption of the diiron structure leads to the extrusion of the Fe^I centres, which are expected to subsequently convert into Fe^III (in fact, slow precipitation of iron(III) oxides has been recognized from water solution, see above). Otherwise, based on previous voltammetric measurements on [2E–F]CF3SO3,[41] oxidation of iron enclosed in the complex is out of the range of biologically relevant potentials. […]
Figure 5 Effects induced by compounds [2C]CF3SO3 and [2D]CF3SO3 at the mitochondrial level. […] The fluorescence of DCF was measured at λ ex=485 nm and λ em=527 nm. […] Fluorescence was estimated at λ ex=490 nm and λ em=590 nm. […]
Mitochondrial membrane potential (ΔΨ). […] Fluorescence intensity was estimated using a VICTOR X3 (PerkinElmer, USA) plate reader at λ ex=490 and λ em=590 nm. […]

[3] = system: thioredoxin reductase (TrxR); settings: cell-free experiment (data not shown)
Excerpt: It has recently emerged that the redox stress induced by some iron complexes might also be attributed to their ability to inhibit the selenoenzyme thioredoxin reductase (TrxR).

[4] = system: TrxR in human pancreatic PSN‐1 cancer cells; assay: TrxR activity in treated cells, NADPH-dependent reduction of DTNB; type: cell-based; settings: PSN‐1 cells, 25 μM, 24 h
Experimental: Figure 6 Effects of compounds [2C]CF3SO3, [2D]CF3SO3 and Auranofin as positive control on TrxR in human pancreatic cells. […] Afterwards, cells were washed twice with PBS and lysed. TrxR activity was tested by measuring the NADPH‐dependent reduction of DTNB. * P<0.05.

| Substance | eq. CO released ([1]; 0-24 h) | eq. CO released ([1]; 24-48 h) | % residual complex [1] | IC50 [2] | Cells with depolarized mitochondria (mitochondrial membrane potential) (PSN‐1 cells) | TrxR inhibition [3] | residual TrxR cellular activity [4] |
| --- | --- | --- | --- | --- | --- | --- | --- |
| [Fe2Cp2(CO)2(μ‐CO){μ‐CNMe(CH2CHCH2)}]X [[3F]CF3SO3] | 0.22 ± 0.06 eq. | 0.15 ± 0.01 eq. | 87-88% | > 100 µM | – | – | – |
| [Fe2Cp2(CO)2(μ‐CO){μ‐CNMe(4‐C6H4OMe)}]CF3SO3 [[2D]CF3SO3] | – | – | – | 16.6 µM | significant dose‐dependent increase of cells with depolarized mitochondria | completely ineffective | 39% |
| [Fe2Cp2(CO)2(μ‐CO){μ‐CNMe(CH2PO3Et2)}]X [[2B]BF4] | – | – | – | > 100 µM | – | – | – |
| [Fe2Cp2(CO)2(μ‐CO){μ‐CNMe(C6H11)}]X [[2C]CF3SO3] | 0.25 ± 0.02 eq. | 0.23 ± 0.04 eq. | 83-86% | 17.4 µM | significant dose‐dependent increase of cells with depolarized mitochondria | completely ineffective | 57% |
| [Fe2Cp2(CO)2(μ‐CO){μ‐CNBn2}]X [[5H]CF3SO3] | 0.29 ± 0.06 eq. | 0.27 ± 0.02 eq. | 80-84% | – | – | – | – |
